Test: Macrolactamisation (Trp/pyrroloindoline CO2H + Val NH2): HATU 1.2 equiv pre-activation, slow syringe-pump addition to Et3N (15 equiv; 1.2 equiv for 12), after TFA N-Boc removal
Conditions: CH2Cl2/DMF (10:1 to 40:1), 0.6 mM, 2 steps

For `C=CC(C)(C)[C@@]12C[C@@H]3C(=O)N[C@@H](C(C)C)C(=O)Nc4ccccc4C(=O)N(c4ccccc41)[C@@H]2N3C(C)=O`, the ring closure, yield over several steps (from C=CC(C)(C)[C@]12C[C@H](C(=O)O)N(C(C)=O)[C@H]1N(C(=O)c1ccccc1NC(=O)[C@@H](N)C(C)C)c1ccccc12, 12-membered ring, 37.0 h) was 0%.
For `C=CC(C)(C)[C@@]12C[C@H]3C(=O)N[C@@H](C(C)C)C(=O)Nc4ccccc4C(=O)N(c4ccccc41)[C@@H]2N3C(C)=O` [(S)-endo-40 -> L-Trp-regio-endo-4], the ring closure, yield over several steps (from C=CC(C)(C)[C@]12C[C@@H](C(=O)O)N(C(C)=O)[C@H]1N(C(=O)c1ccccc1NC(=O)[C@@H](N)C(C)C)c1ccccc12, 12-membered ring, 22.0 h) was 37%.
In the case of `C=CC(C)(C)[C@]12C[C@H]3C(=O)N[C@@H](C(C)C)C(=O)Nc4ccccc4C(=O)N(c4ccccc41)[C@H]2N3C(C)=O` [(S)-exo-40 -> L-Trp-regio-exo-4 (moderately pure, unstable)], the ring closure, yield over several steps (from C=CC(C)(C)[C@@]12C[C@@H](C(=O)O)N(C(C)=O)[C@@H]1N(C(=O)c1ccccc1NC(=O)[C@@H](N)C(C)C)c1ccccc12, 12-membered ring, 15.0 h) is reported as 21%.
For `CC(=O)N[C@@H]1Cc2cn(c3ccccc23)C(=O)c2ccccc2NC(=O)[C@H](C(C)C)NC1=O` [H-L-Val-(2-aminobenzoyl)-(N-indole)-Ac-D-Trp-OH], the ring closure, yield over several steps (from CC(=O)N[C@H](Cc1cn(C(=O)c2ccccc2NC(=O)[C@@H](N)C(C)C)c2ccccc12)C(=O)O, 13-membered ring, 84.0 h) was 14%.
In the case of `C=CC(C)(C)[C@]12C[C@@H]3C(=O)N[C@@H](C(C)C)C(=O)Nc4ccccc4C(=O)N(c4ccccc41)[C@H]2N3C(C)=O` [endo-40 -> D-Trp-regio-endo-4], the ring closure, yield over several steps (from C=CC(C)(C)[C@@]12C[C@H](C(=O)O)N(C(C)=O)[C@@H]1N(C(=O)c1ccccc1NC(=O)[C@@H](N)C(C)C)c1ccccc12, 12-membered ring, 24.0 h) is reported as 61%.

Source: paper PMC9552235
